Results published in patent US6984632B1, “Complexes of paroxetine, with cyclodextrins or cyclodextrin derivatives” (Italfarmaco S.p.A., priority 1999, dated 2006).
Converted amounts (≈) assume the structure as drawn. Counter-ions that a name gives are not always drawn.

How the values were obtained:
Assay type in all cases: physicochemical
[1] = Solubility in water of complex of Example 9 vs non-complexed paroxetine base; conditions: thermodynamic from solid; deionised water, room temperature, 4 hours stirring, spectrophotometry at 293 nm; read-out: solubility (content of paroxetine base in the solution)
Procedure: 5 g of the product of Example 9 were added to 10 ml of deionised water and kept under stirring for 4 hours at room temperature.
The suspension was then filtered through a cellulose acetate filter in order to remove the undissolved product.
The solution was analysed by 293 nm spectrophotometry against a standard solution of paroxetine base.

[2] = Stability at 60° C., visual examination
Procedure: About 200 mg of paroxetine base and 1 g of the complex of Example 9 (corresponding to about 180 mg of paroxetine base) have each been introduced in a neutral white glass containers and stored, opened, in an oven at 60° C.
The product in the two containers has been visually examined after 48 hours of storage.

[3] = Solubility in water of complexes of Examples 1-5 vs non-complexed paroxetine HCl; conditions: thermodynamic from solid; deionized water, 25° C., 24 hours stirring, spectrophotometry at 295 nm
Procedure: A solubility test was carried out on an amount of the complexes of Examples 1 to 5 corresponding 500 mg of paroxetine HCl and, as a comparison, on 500 mg of non-complexed paroxetine HCl.
Each sample was introduced into a container containing 5 ml of deionized water. The containers, closed with a plug were then set under stirring in a thermostatic bath at 25° C. for 24 hours.
The obtained suspensions were then filtered through a cellulose acetate filter and analysed by spectrophotometry at 295 nm, in comparison with a standard solution of paroxetine.
The results obtained are reported in FIG. 1 wherein the solubility of paroxetine HCl (in mg/ml) is represented as a function of the molar ratio between β-cyclodextrin and paroxetine HCl.

solubility at 4 h [1] [µg/mL] | visual appearance ([2]; 48 h 60° C., open glass container) | visual appearance ([2]; Initial) | solubility at 24 h [3] [µg/mL] | Compound
300 (≈ 911 µM) | Brown liquid | Straw-Yellow liquid | – | Fc1ccc([C@@H]2CCNC[C@H]2COc2ccc3c(c2)OCO3)cc1 [Paroxetine base, Paroxetine]
– | – | – | 5000 | Fc1ccc([C@@H]2CCNC[C@H]2COc2ccc3c(c2)OCO3)cc1 [non-complexed paroxetine HCl, paroxetine HCl]
